Experimental data: publication PMC9518609, “Design and synthesis of new trimethoxylphenyl-linked combretastatin analogues loaded on diamond nanoparticles as a panel for ameliorated solubility and antiproliferative activity” (Journal of Enzyme Inhibition and Medicinal Chemistry, 2022)

Columns and labels:
Format in all cases: cell-based
MDA-MB-231 cells [1] = assay: Annexin V-FITC/PI apoptosis staining assay; conditions: MDA-MB-231, at IC50, 24 h; for percentage of late apoptotic cells (upper right quadrant): untreated control 0.13%
Protocol: The effect of compounds 6 and 12 on apoptosis percentage rate was carried out using annexin V-FITC/Propidium iodide (PI) biparametric cytofluorimetric double staining analysis in MDA-MB-231 cells.
Apoptosis in MDA-MB-231 cells was investigated using a fluorescent Annexin V-FITC/PI detection kit (BioVision Annexin V-FITC Apoptosis Detection Kit, Catalog #: K101) by flow cytometry assay. All experimental steps were conducted as reported earlier. […]
4.3.4.1. Apoptosis assay for compounds 6 and 12
Apoptosis in MDA-MB-231 cells was investigated using fluorescent Annexin V-FITC/ PI detection kit (BioVision Annexin V-FITC Apoptosis Detection Kit, Catalog #: K101) by flow cytometry assay. MDA-MB-231 cells at a density of 2 × 10^5 per well were treated […]
stained with Annexin V-FITC/ PI dye for 15 min in the dark at 37 °C. […]
(§1) All experiments were done in triplicates. […]

β-tubulin = β-tubulin polymerisation inhibition assay (Human Beta-tubulin ELISA kit) on MDA-MB-231 cells; conditions: MDA-MB-231 cell line, each compound at its IC50 concentration
Protocol: Trimethoxy phenyl fragment-containing natural stilbenoid-derived molecules, such as Colchicine and CA-4 bind to β-tubulin subunit at the colchicine binding site resulting in inhibition of microtubule assembly and suppression of its formation. […] From the obtained results it can be concluded that the antiproliferative activity of the synthesised triazinone-linked CA-4 derivatives may be derived from the inhibition of microtubule assembly.
Triazinone derivatives 6 and 12 were assessed for their tubulin inhibitory activity according to manufacturer’s instructions using # abcam Human Beta-tubulin simple step ELISA Kit ab245722.
(§2) Part I: Biological Studies
(§3) 4.3. Biological evaluation
(§4) 4.3.1. Cytotoxic activity evaluation
(§5) The cytotoxic actvity of the synthesized derivatives 2a-13e was measured in MDA-MB-231 breast cancer cell line and derivatives 6 and 12 in MCF-10A […].
(§6) Cell viability assay was assessed using MTT assay method. Cells at density of 1 x 104 were seeded in a 96-well plate at 37 °C for 24 h under 5% CO2. After incubation, the cells were treated with different concentrations of the test schiff bases 2a-13e and incubated for 24 h, then 20 µl of MTT solution at 5 mg/mL was applied and incubated for 4 h at 37 °C.
(§7) Dimethyl sulphoxide (DMSO) in volume of 100 µl was added to each well to dissolve the purple formazan that had formed. The color intensity of the formazan product, which represents the growth condition of the cells, is quantified by using an ELISA plate reader (EXL 800, USA) at 570 nm absorbance. The experimental conditions were carried out with at least three replicates, and the experiments were repeated at least three times.
4.3.2. Tubulin inhibitions Assay
Compounds 6, 12 and CA-4 were evaluated for their tubulin inhibitory activity according to manufacturer’s instructions using # abcam Human Beta-tubulin simplestep ELISA Kit ab245722. MDA-MB-231 cells were trypsinized, counted and seeded at the 2 × 105 into 96-well micro titer plates. […]
(O.D.) was measured at 450±10 nm using microplate reader (Spectromax Plus 96 well plate […]

MDA-MB-231 cells [2] = assay: Cell cycle analysis by DNA flow cytometry; conditions: MDA-MB-231, at IC50, 24 h; for %Pre-G1 (pre-G1 apoptosis): untreated control 1.99%; for %DIP G2/M (cells in G2/M phase): untreated control 5.64%
Protocol: Targeting the cell cycle division at distinct checkpoints of cancer cells has been identified as a promising strategy for cancer chemotherapy.
Cell cycle analysis in MDA-MB-231 cells was investigated using a fluorescent Annexin V-FITC/PI detection kit (BioVision EZCell™ Cell Cycle Analysis Kit Catalog #K920) by flow cytometry assay. All experimental steps were performed as reported earlier.
4.3.3. Cell cycle analysis of compound 6 and 12
Cell cycle analysis in MDA-MB-231 cells was investigated using fluorescent Annexin V-FITC/ PI detection kit (BioVision EZCellTM Cell Cycle Analysis Kit Catalog #K920) by flow cytometry assay. MDA-MB-231 cells at a density of 2 × 10^5 per well were harvested and washed twice in PBS. After that, the cells were incubated at 37 °C and 5% CO2. The […]
washed twice in PBS, fixed with 70% ethanol, rinsed again with PBS. Afterward, medium was stained with DNA fluorochrome PI for 15 min at 37 °C. […]
as §1

MDA-MB-231 = assay: MTT cytotoxic activity against breast MDA-MB-231 cancer cell line; conditions: MTT assay, 24 h treatment
Description: All the synthesised compounds were screened for their cytotoxic activity against breast MDA-MB-231 cancer cell line and compounds 6 and 12 against breast MCF-10A cell line taking CA-4 as a positive control for the analysis. The in vitro cytotoxicity results of the prepared compounds were systematised in Table 1. […] Structurally, the prepared molecules contain three structural variations; including rotatable hydrazide derivatives, the core exchange with imidazolone ring, and the ring expansion with triazinone motif. […] It is noticed that directly attached benzene ring to triazinone scaffold (compound 6) or bioisosteric group (thiazolyl ester) as in compound 12, may contribute to the astonishing cytotoxicity against breast MDA-MB-231 cancer cells.
To measure the cytotoxic activity of the synthesised derivatives 2a–13e in breast cancer (MDA-MB-231) cell line. MTT assay method was applied to assess cell viability assay. All experimental steps were conducted as reported earlier.
as §2, §3, §4, §5, §6
as §7, with “times. […]” for “times.”

Molecule	increase of percentage of early apoptotic cells relative to no treatment control (MDA-MB-231 cells [1])	increase of percentage of total apoptotic cells compared with no treatment control (MDA-MB-231 cells [1])	percentage of late apoptotic cells (upper right quadrant) (MDA-MB-231 cells [1])	% Inhibition of β-tubulin polymerisation (β-tubulin)	%Pre-G1 (pre-G1 apoptosis) (MDA-MB-231 cells [2])	%DIP G2/M (cells in G2/M phase) (MDA-MB-231 cells [2])	IC50 (MDA-MB-231)	IC50 (MDA-MB-231; Homo sapiens, MDA-MB-231)
ethyl 2-(2-(6-oxo-5-(3,4,5-trimethoxybenzylidene)-3–(3,4,5-trimethoxyphenyl)-5,6-dihydro-1,2,4-triazin-2(1H)-yl)thiazol-4-yl)acetate [Compound 12]	4.36 fold	14.98 fold	17.68%	68.28 ± 0.16%	29.81%	26.75%	1710 ± 110 nM	
COc1cc(C=C2N=C(c3cc(OC)c(OC)c(OC)c3)N(c3ccccc3)NC2=O)cc(OC)c1OC [Compound 6, 2-phenyl-5-(3,4,5-trimethoxybenzylidene)-3-(3,4,5-trimethoxyphenyl)-1,2-dihydro-1,2,4-triazin-6(5H)-one]	6.80 fold	21.86 fold	23.28%	77.61 ± 0.10%	43.50%	35.09%		1360 ± 100 nM
